In patent US20230357179A1, “RAF KINASE INHIBITORS AND METHODS OF USE THEREOF” (Deciphera Pharmaceuticals, LLC, priority 2021, published 2023):

Tests used:
[1] = molecular target: T1, C-Raf kinase (Homo sapiens, UniProt P04049, Y340D/Y341D); assay: Biochemical assay for C-Raf.1 (coupled pyruvate kinase/lactate dehydrogenase); conditions: read-out: CRAF.1 IC50
T1 construct: Y340D,; GST (N); purchased Sigma
Method in brief: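 C-Raf (0.43 nM) with MEK 30.1 nM and 1 mM ATP in Tris pH 7.5/MgCl2 buffer, activity coupled via PK/LDH to NADH oxidation (A340), 6 h at 30° C. Rates from 4–5 h window converted to % inhibition versus controls; IC50 by four-parameter fit, 1% DMSO.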

[2] = molecular target: T2, B-Raf (V600E) kinase (Homo sapiens, UniProt P15056, V600E); assay: Biochemical assay for B-Raf (V600E).1 (coupled pyruvate kinase/lactate dehydrogenase); conditions: read-out: BRAF V600E.1 IC50
T2 construct: B-Raf (V600E) residues 416-766 with a; GST (N); purchased SignalChem
T2 sequence (P15056 416-766 V600E): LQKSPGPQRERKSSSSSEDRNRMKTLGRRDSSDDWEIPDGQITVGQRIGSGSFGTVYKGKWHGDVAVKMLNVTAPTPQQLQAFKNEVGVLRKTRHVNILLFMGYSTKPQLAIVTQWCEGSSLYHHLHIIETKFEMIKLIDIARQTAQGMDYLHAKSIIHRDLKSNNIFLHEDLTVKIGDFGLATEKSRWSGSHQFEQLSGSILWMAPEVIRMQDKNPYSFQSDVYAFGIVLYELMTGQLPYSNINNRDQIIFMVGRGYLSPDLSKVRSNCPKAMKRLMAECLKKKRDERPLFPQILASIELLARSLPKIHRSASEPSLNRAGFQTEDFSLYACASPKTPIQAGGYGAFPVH
Method in brief: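 0.03 nM B-Raf(V600E) phosphorylating 30.1 nM MEK at 1 mM ATP, pH 7.5, coupled to PK/LDH, with NADH oxidation followed at 340 nm for 6 h at 30 °C. Rates taken from the 3-4 h window. IC50 from a four-parameter fit of percent inhibition.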

[3] = molecular target: T3, B-Raf kinase (Homo sapiens, UniProt P15056); assay: Biochemical assay for B-Raf.1 (coupled pyruvate kinase/lactate dehydrogenase); conditions: read-out: BRAF.1 IC50
T3 construct: GST (N); purchased Sigma
T3 sequence (P15056 416-766): as the sequence (P15056 416-766 V600E) above, with E185V counted along it
Method in brief: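 NADH oxidation followed at 340 nm in a pyruvate kinase/lactate dehydrogenase-coupled assay with 0.13 nM B-Raf, 30.1 nM MEK substrate, 1 mM ATP, pH 7.5 Tris buffer, 1% DMSO. Monitored 6 h at 30 °C; rate taken from 4–5 h. IC50 from four-parameter sigmoidal fit.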

[4] = system: H2405 cells; assay: H2405 cell proliferation assay (1), resazurin, 96-well; type: cell-based; conditions: Homo sapiens, NCI-H2405, inhibition of cell proliferation
Procedure: H2405 Cell Proliferation Assay (1)
H2405 cells (catalog #CRL-5944) are obtained from the American Type Culture Collect (ATTC, Manassas, VA). Briefly, cells were grown in RPMI 1640 supplemented with 5% characterized fetal bovine serum (Invitrogen, Carlsbad, CA) and 1% Penicillin/Streptomycin/L-Glutamine at 37° C., 5% CO2, and 95% humidity. Cells are expanded until reaching 70-95% confluency at which point they are subcultured or harvested for assay use. A serial dilution of test compound is dispensed into a 96-well black clear bottom plate in triplicate. Three thousand cells are added per well in 200 μL complete growth medium in the 96-well plate. Plates are incubated for 67-72 hours at 37° C., 5% CO2, and 95% humidity. At the end of the incubation, 40 μL of a 440 μM solution of resazurin (Sigma, St. Louis, MO) in PBS is added to each well of the plate and plates are incubated for an additional 5-6 hours at 37° C., 5% CO2, and 95% humidity. Plates are read on a Synergy2 or equivalent reader (Biotek, Winooski VT) using an excitation of 540 nm and an emission of 600 nm. Data is analyzed using Prism software (GraphPad, San Diego, CA) to calculate IC50 values.

T1 sequence (P04049 307-648 Y340D/Y341D): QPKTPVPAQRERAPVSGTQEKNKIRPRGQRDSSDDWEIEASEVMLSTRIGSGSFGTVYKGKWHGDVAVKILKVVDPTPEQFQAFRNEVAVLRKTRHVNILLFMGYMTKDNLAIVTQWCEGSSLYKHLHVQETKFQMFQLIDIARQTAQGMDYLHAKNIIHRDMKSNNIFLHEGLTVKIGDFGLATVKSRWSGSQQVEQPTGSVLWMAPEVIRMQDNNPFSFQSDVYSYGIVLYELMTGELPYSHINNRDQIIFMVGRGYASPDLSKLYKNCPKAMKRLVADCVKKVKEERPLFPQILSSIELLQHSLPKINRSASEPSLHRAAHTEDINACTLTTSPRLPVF

Structure (SMILES)	IC50 [1] [µM]	IC50 [2] [µM]	IC50 [3] [µM]	IC50 [4] [µM]
Cc1ccc(NC(=O)Nc2cccc(C(F)(F)F)c2)cc1-c1cc(OCCO)nc(N2CCOCC2)c1 [Example 3, 1-(3-(2-(2-hydroxyethoxy)-6-morpholinopyridin-4-yl)-4-methylphenyl)-3-(3-(trifluoromethyl)phenyl)urea]	≤ 0.1	≤ 0.1	≤ 0.1	–
Cc1ccc(NC(=O)NCCC(C)(C)C)cc1-c1cc(N2CCOCC2)nc(N2CCOCC2)c1 [Example 4]	≤ 0.1	≤ 0.1	≤ 0.1	0.1 to 0.5
Cc1cc(F)c(NC(=O)NCCC(C)(C)C)cc1-c1cc(OCCO)nc(C2=CCOCC2)c1 [Example 7]	≤ 0.1	≤ 0.1	≤ 0.1	≤ 0.1
Cc1cc(F)c(NC(=O)NCCC(C)(C)C)cc1-c1cc(N2CCOCC2)nc(N2CCOCC2)c1 [Example 10]	≤ 0.1	≤ 0.1	≤ 0.1	0.5 to 1
Cc1cc(F)c(NC(=O)NCCC(C)(C)F)cc1-c1cc(OCCO)nc(-c2ccnc3[nH]ncc23)c1 [Example 94]	≤ 0.1	≤ 0.1	≤ 0.1	0.1 to 0.5
COC(=O)Nc1cc(-c2cc(-c3cc(NC(=O)NC[C@H]4CCO4)c(F)cc3C)cc(OCCO)n2)ccn1 [Example 96]	0.1 to 0.5	≤ 0.1	0.5 to 1	1 to 10
Cc1cc(F)c(NC(=O)NCCC(C)(C)F)cc1-c1cc(OCCO)nc(-c2ccnc3[nH]ccc23)c1 [Example 97]	≤ 0.1	≤ 0.1	≤ 0.1	0.5 to 1
Cc1cc(F)c(NC(=O)NCC(C)C)cc1-c1cc(OCCO)nc(-c2ccnc(NC(=O)C3CC3)c2)c1 [Example 99]	≤ 0.1	≤ 0.1	≤ 0.1	0.1 to 0.5
Cc1cc(F)c(NC(=O)NCCC(C)(C)F)cc1-c1cccc(-c2ccnc3[nH]ncc23)c1 [Example 100]	≤ 0.1	≤ 0.1	≤ 0.1	1 to 10
Cc1cc(F)c(NC(=O)NC2CC3(COC3)C2)cc1-c1cc(OCCO)nc(-c2ccnc3[nH]ncc23)c1 [Example 101]	≤ 0.1	≤ 0.1	0.1 to 0.5	1 to 10
Cc1ncc(NC(=O)NC[C@H](O)C(C)(C)C)cc1-c1ccnc(-c2ccnc(NC(=O)C3CC3)c2)c1 [Example 102]	≤ 0.1	≤ 0.1	≤ 0.1	1 to 10
COC(=O)Nc1cc(-c2cc(-c3cc(NC(=O)NCCC4(C)CC4)cnc3C)ccn2)ccn1 [Example 103]	≤ 0.1	≤ 0.1	≤ 0.1	1 to 10
COC1(CCNC(=O)Nc2cc(-c3cccc(-c4cc(NC(=O)C5CC5)ncn4)c3)c(C)cc2F)CC1 [Example 104]	≤ 0.1	≤ 0.1	≤ 0.1	0.1 to 0.5
Cc1cc(F)c(NC(=O)NCCC(F)F)cc1-c1cc(OCCO)nc(-c2ccnc(NC(=O)C3CC3)c2)c1 [Example 105]	≤ 0.1	≤ 0.1	≤ 0.1	0.5 to 1
Cc1cc(F)c(NC(=O)NCCC(C)C)cc1-c1cc(OCCO)nc(-c2ccnc(NC(=O)C3CC3)c2)c1 [Example 106]	≤ 0.1	≤ 0.1	≤ 0.1	0.1 to 0.5
Cc1ncc(NC(=O)NCCC2(C)CC2)cc1-c1ccnc(-c2ccnc(NC(=O)C3CC3)c2)n1 [Example 107]	≤ 0.1	≤ 0.1	≤ 0.1	0.1 to 0.5
COC(C)(C)CCNC(=O)Nc1cc(-c2ccnc(-c3ccnc(NC(=O)C4CC4)c3)n2)c(C)cc1F [Example 108]	≤ 0.1	≤ 0.1	≤ 0.1	0.1 to 0.5
COC(=O)Nc1cc(-c2cc(-c3cc(NC(=O)NCCC(C)(C)C)cnc3C)ccn2)ccn1 [Example 109]	≤ 0.1	≤ 0.1	≤ 0.1	1 to 10
Cc1cc(F)c(NC(=O)NCCC2(C)COC2)cc1-c1cc(OCCO)nc(-c2ccnc3[nH]ncc23)c1 [Example 110]	0.1 to 0.5	≤ 0.1	0.1 to 0.5	1 to 10

Structure (SMILES)	IC50 [1] [µM]	IC50 [2] [µM]	IC50 [3] [µM]	IC50 [4] [µM]
Cc1cc(F)c(NC(=O)NCC23CC(F)(C2)C3)cc1-c1cc(OCCO)nc(-c2ccnc3[nH]ncc23)c1 [Example 111]	≤ 0.1	≤ 0.1	≤ 0.1	1 to 10
Cc1ncc(NC(=O)NCCC2(C)CC2)cc1-c1cc(OCCO)nc(-c2ccnc3c2CC(=O)N3)c1 [Example 112]	≤ 0.1	≤ 0.1	≤ 0.1	1 to 10
Cc1ncc(NC(=O)NCCC2(C)CC2)cc1-c1cc(OCCO)nc(-c2ccnc(NC(=O)C3CC3)c2)c1 [Example 113]	≤ 0.1	≤ 0.1	≤ 0.1	0.1 to 0.5
Cc1cc(F)c(NC(=O)NCCC(C)(C)F)cc1-c1nccc(-c2ccnc(NC(=O)C3CC3)c2)n1 [Example 114]	≤ 0.1	≤ 0.1	≤ 0.1	0.5 to 1
COC(=O)Nc1cc(-c2cc(-c3cc(NC(=O)NCCC(C)C)c(F)cc3C)cc(OCCO)n2)ccn1 [Example 115]	≤ 0.1	≤ 0.1	≤ 0.1	0.5 to 1
COC1(CCNC(=O)Nc2cc(-c3ccnc(-c4ccnc(NC(=O)C5CC5)c4)n3)c(C)cc2F)CC1 [Example 117]	≤ 0.1	≤ 0.1	≤ 0.1	0.1 to 0.5
Cc1ncc(NC(=O)NCCC2(C)CC2)cc1-c1ccnc(-c2ccnc(NC(=O)C3CC3)c2)c1 [Example 118]	≤ 0.1	≤ 0.1	≤ 0.1	0.5 to 1
CNC(=O)c1cc(-c2cnnc(-c3cc(NC(=O)NCCC(C)(C)C)c(F)cc3C)c2)ccn1 [Example 119]	0.1 to 0.5	≤ 0.1	0.1 to 0.5	1 to 10
Cc1ncc(NC(=O)NCCC(C)(C)C)cc1-c1cc(-c2ccnc(NC(=O)C3CC3)c2)cnn1 [Example 120]	≤ 0.1	≤ 0.1	≤ 0.1	1 to 10
COC(C)(C)CCNC(=O)Nc1cnc(C)c(-c2cc(-c3ccnc(NC(=O)C4CC4)c3)cnn2)c1 [Example 121]	≤ 0.1	≤ 0.1	0.1 to 0.5	1 to 10
COC(=O)Nc1nccc(-c2cc(OCCO)cc(-c3cc(NC(=O)NCCC4(C)CC4)c(F)cc3C)c2)n1 [Example 122]	≤ 0.1	≤ 0.1	≤ 0.1	0.5 to 1
CNC(=O)c1cc(-c2cnnc(-c3cc(NC(=O)NCCC(C)(C)OC)c(F)cc3C)c2)ccn1 [Example 123]	0.5 to 1	≤ 0.1	> 1	1 to 10
CCC(C)CCNC(=O)Nc1cnc(C)c(-c2ccnc(-c3ccnc(NC(=O)C4CC4)c3)c2)c1 (stereo not drawn) [Example 124]	≤ 0.1	≤ 0.1	≤ 0.1	1 to 10
COC(=O)Nc1cc(-c2cc(-c3cc(NC(=O)NCCN4CCC4)c(F)cc3C)cc(OCCO)n2)ccn1 [Example 125]	> 1	0.1 to 0.5	> 1	1 to 10
Cc1ncc(NC(=O)NC2CC(C)(C)C2)cc1-c1cc(OCCO)nc(-c2ccnc(NC(=O)C3CC3)c2)c1 [Example 126]	≤ 0.1	≤ 0.1	≤ 0.1	0.5 to 1
Cc1cc(F)c(NC(=O)NCCC(C)(C)F)cc1-c1cccc(-c2cc(NC(=O)C3CC3)ncn2)c1 [Example 127]	≤ 0.1	≤ 0.1	≤ 0.1	1 to 10
Cc1cc(F)c(NC(=O)NCCC(C)(C)F)cc1-c1ccnc(-c2ccnc(NC(=O)C3CC3)c2)n1 [Example 128]	≤ 0.1	≤ 0.1	≤ 0.1	1 to 10
COC(=O)Nc1cc(-c2nccc(-c3cc(NC(=O)NCCC(C)(C)OC)c(F)cc3C)n2)ccn1 [Example 129]	≤ 0.1	≤ 0.1	≤ 0.1	1 to 10
